Measurements from PubChem BioAssay (NCI).
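Each compound was tested at five concentrations against cells in 96-well plates for 48 hours. At the TGI there is no net growth.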

How the values were obtained:
Assay in all cases: NCI tumour cell line growth inhibition, 48 h
HL-60(TB) leukemia = test system: HL-60(TB) leukemia
NCI/ADR-RES ovarian = test system: NCI/ADR-RES ovarian
IGROV1 ovarian = test system: IGROV1 ovarian
SR leukemia = test system: SR leukemia
COLO 205 colon = test system: COLO 205 colon
MALME-3M melanoma = test system: MALME-3M melanoma
T-47D breast = test system: T-47D breast
OVCAR-8 ovarian = test system: OVCAR-8 ovarian
UACC-62 melanoma = test system: UACC-62 melanoma
HT29 colon = test system: HT29 colon
SF-268 CNS = test system: SF-268 CNS
KM12 colon = test system: KM12 colon
OVCAR-5 ovarian = test system: OVCAR-5 ovarian
SK-MEL-5 melanoma = test system: SK-MEL-5 melanoma
SK-MEL-2 melanoma = test system: SK-MEL-2 melanoma
EKVX NSCLC = test system: EKVX NSCLC
NCI-H23 lung = test system: NCI-H23 lung
SNB-75 CNS = test system: SNB-75 CNS
HOP-62 NSCLC = test system: HOP-62 NSCLC
A549 NSCLC = test system: A549 NSCLC

| SMILES | TGI (HL-60(TB) leukemia) [µM] | TGI (NCI/ADR-RES ovarian) [µM] | TGI (IGROV1 ovarian) [µM] | TGI (SR leukemia) [µM] | TGI (COLO 205 colon) [µM] | TGI (MALME-3M melanoma) [µM] | TGI (T-47D breast) [µM] | TGI (OVCAR-8 ovarian) [µM] | TGI (UACC-62 melanoma) [µM] | TGI (HT29 colon) [µM] | TGI (SF-268 CNS) [µM] | TGI (KM12 colon) [µM] | TGI (OVCAR-5 ovarian) [µM] | TGI (SK-MEL-5 melanoma) [µM] | TGI (SK-MEL-2 melanoma) [µM] | TGI (EKVX NSCLC) [µM] | TGI (NCI-H23 lung) [µM] | TGI (SNB-75 CNS) [µM] | TGI (HOP-62 NSCLC) [µM] | TGI (A549 NSCLC) [µM] |
| --- | --- | --- | --- | --- | --- | --- | --- | --- | --- | --- | --- | --- | --- | --- | --- | --- | --- | --- | --- | --- |
| CCCCOc1ccc(S(=O)(=O)/N=C(\NN)Nc2ccc(Cl)cc2)cc1 | > 100 | 76.3 | 60.2 | 52.6 | 38.5 | 86.3 | 46.2 | 36.2 | > 100 | 48.9 | 33 | > 100 | 52.9 | > 100 | > 100 | > 100 | > 100 | 27 | 38.5 | 36.6 |
| NC(N)=NS(=O)(=O)c1ccc(NNc2c3ccccc3nc3c(C(=O)Nc4ccc(S(N)(=O)=O)cc4)cccc23)cc1 | 77.9 | > 100 | > 100 | > 100 | > 100 | > 100 | > 100 | > 100 | > 100 | 56.1 | > 100 | > 100 | > 100 | > 100 | 46.9 | > 100 | > 100 | > 100 | > 100 | > 100 |
| COc1ccc(Nc2nc3ccccc3nc2C(=O)O)cc1 | > 100 | > 100 | > 100 | > 100 | > 100 | > 100 | > 100 | > 100 | > 100 | > 100 | > 100 | > 100 | > 100 | > 100 | > 100 | > 100 | > 100 | > 100 | > 100 | > 100 |
| COc1ccc2c(c1)c1c3c(ccc4ncn2c43)N(CCN(C)C)CCN=1 | 1.1 | 1.96 | 4.37 | 0.209 | 1.83 | 2.67 | 6.05 | 1.56 | 1.78 | 1.58 | 4.24 | 1.7 | 2.83 | 2.31 | 2.32 | 2.71 | 3.59 | 2.26 | 1.73 | 2.04 |
| CC(C)(C)c1cc(C(C)(C)C)c2sc(=S)oc2c1O | 33 | 24.4 | 24.6 | 9.76 | 29.6 | 32.1 | 20.6 | 20.9 | 23.4 | 30.1 | 19.8 | 18 | 20.2 | 21.8 | 24.3 | 11.6 | 18.9 | 18.5 | 31.1 | > 41.3 |
| COc1ccc2[nH]c3c(C)c4cnccc4c(C)c3c2c1 | 4.64 | 6.94 | > 10 | > 10 | 4.44 | 2.82 | > 10 | 2.2 | > 10 | 3.41 | > 10 | 2.83 | > 10 | > 10 | > 10 | > 10 | > 10 | > 10 | 2.78 | 3.65 |
| COc1ccc(C2C(Cl)C(=O)N2NC(=O)c2ccc(N)cc2)cc1OC (stereo not given) | 4.54 | 5.16 | 3.27 | 4.85 | 30.3 | 25.6 | 24.9 | 16.4 | 16 | 6.28 | 36.8 | 5.64 | 34.8 | 26.3 | 26.6 | 35.2 | 18.8 | 33.3 | 32.6 | 34.1 |
| O=C1CSC(/C=C/c2ccccc2)N1c1ccc(-n2c(-c3ccccc3)nc3ccccc3c2=O)cc1 (stereo not given) | > 100 | > 100 | > 100 | > 100 | > 100 | > 100 | > 100 | > 100 | > 100 | > 100 | > 100 | > 100 | > 100 | > 100 | > 100 | > 100 | > 100 | 90 | > 100 | > 100 |
